From patent US20090036514A1, “Therapeutic effects of Bryostatins, Bryologs, and other related substances on Ischemia/stroke-induced memory impairment and brain injury” (priority 2007, published 2009)
Read-outs that look alike come from different tables or passages of the source.

Tests used:
[1] = molecular target: T1, PKCε (Homo sapiens, UniProt Q02156); details: cited from earlier work
T1 sequence (Q02156 1-737): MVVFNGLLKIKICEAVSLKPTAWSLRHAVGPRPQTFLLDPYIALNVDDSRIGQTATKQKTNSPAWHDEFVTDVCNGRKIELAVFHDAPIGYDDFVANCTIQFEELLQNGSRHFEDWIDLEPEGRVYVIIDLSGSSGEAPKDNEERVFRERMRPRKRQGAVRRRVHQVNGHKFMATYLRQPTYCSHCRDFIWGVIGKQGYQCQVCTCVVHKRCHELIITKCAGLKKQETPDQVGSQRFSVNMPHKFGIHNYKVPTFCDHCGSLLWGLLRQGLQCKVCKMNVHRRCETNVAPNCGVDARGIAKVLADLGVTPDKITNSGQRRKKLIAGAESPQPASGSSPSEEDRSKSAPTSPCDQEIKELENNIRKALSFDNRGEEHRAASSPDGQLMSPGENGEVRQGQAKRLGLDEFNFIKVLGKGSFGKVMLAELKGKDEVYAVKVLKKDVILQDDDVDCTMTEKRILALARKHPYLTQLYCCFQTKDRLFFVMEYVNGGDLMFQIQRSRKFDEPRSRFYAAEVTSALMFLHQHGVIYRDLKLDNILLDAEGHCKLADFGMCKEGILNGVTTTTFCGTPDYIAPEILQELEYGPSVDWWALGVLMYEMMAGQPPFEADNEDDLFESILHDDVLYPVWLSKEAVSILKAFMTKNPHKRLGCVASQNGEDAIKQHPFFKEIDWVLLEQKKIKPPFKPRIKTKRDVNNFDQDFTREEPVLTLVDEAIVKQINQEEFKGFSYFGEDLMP

[2] = tested on: squamous cell carcinoma and melanoma; details: used topically; cited from earlier work
[3] = tested on: NCI 60 cell line screen; details: cited from earlier work
[4] = tested on: cyclin dependent kinase 2 (Cdk2); details: at 5 ng/ml; cited from earlier work
[5] = tested on: murine leukemias and solid tumors; details: cited from earlier work
[6] = tested on: PKC; details: K562 cells; cited from earlier work
[7] = molecular target: PKC; details: [3H]phorbol dibutyrate; read-out: Ki for binding; cited from earlier work
[8] = molecular target: PKC; details: A-ring bryologs; read-out: affinity for PKC; cited from earlier work
[9] = molecular target: protein kinase C; details: (−)-enantiomer; cited from earlier work
[10] = tested on: cerebral ischemia-induced memory impairment; test: water maze spatial learning and probe test after global ischemia (Example 2); type: in vivo, rat; details: for water maze spatial learning, ischemic with treatment vs. control rats: trained one week after last dose; for water maze spatial learning, ischemic with treatment vs. ischemic rats: treatment started 24 hours after hypoxia, bryostatin-1 20 μg/m^2 i.v. 2 doses/week 10 doses, MCDA 1.0 mg/kg i.p. daily 5 weeks
Method: Rats (male, Wistar, 200-225 g) were randomly divided into 6 groups (8 each) and housed for 1 week before experimentation. Transient or permanent restriction of cerebral blood flow and oxygen supply results in ischemic stroke. The global ischemia model used to induce vascular memory impairment was two-vessel occlusion combined with a short term systemic hypoxia. Ligation of the bilateral common carotid arteries was performed under anesthesia (pentobarbital, 60 mg/kg, i.p.). After a one-week recovery from the surgery, rats were exposed to 14-min hypoxia (5% oxygen in a glass jar). Control rats (sham operated and vehicle controls) were subjected to the same incision to isolate both common carotid arteries and to 14-min air (in the glass jar). Body temperature was kept at 37-37.5° C. using a heating light source during the surgical procedure and until the animals were fully recovered.
4-Methylcatechol-diacetic acid (MCDA, a potential NGF and BDNF booster) was administered at 1.0 mg/kg (i.p., daily for the same 5-week period) in separate groups of rats.
A visible platform test was given after the probe test.

[11] = tested on: cerebral ischemia/hypoxia-induced learning and memory impairment; test: water maze spatial learning and memory after global cerebral ischemia/hypoxia (Example 3); type: in vivo, rat
Method: Global cerebral ischemia/hypoxia was induced in male Wistar rats (225-250 g) by permanently occluding the bilateral common carotid arteries, combined with about 14 minutes of low oxygen (about 5%). […] Spatial learning (2 trials/ day for 4 days) and memory (a probe test of 1 minute, 24 hours after the last trial) task was performed 9 days after the last dose. Overall, there was a significant difference between the groups (F3,255=31.856, p<0.001) and groups x trials (F21,255=1.648, p<0.05). Global cerebral ischemia impaired the spatial learning (ischemial vs. sham-operated F1,127=[…]).

[12] = humans; cited from earlier work
[13] = non-ischemic rats, same regimens

Structure (SMILES): CCCCCC1CC1CC1CC1CCCCCCCC(=O)O (stereo not shown) [DCP-LA, 2-[(2-pentylcyclopropyl)methyl] cyclopropaneoctanoic acid]
- concentration of maximal effect on PKCε activation [1]: 100 nM

Structure (SMILES): C/C=C(/C)C(=O)O[C@H]1C(C)=C[C@]23C(=O)[C@@H](C=C(CO)[C@@H](O)[C@]12O)[C@H]1[C@@H](C[C@H]3C)C1(C)C [Ingenol-3-angelate]
- antitumor activity [2]: possesses antitumor activity

Structure (SMILES): CC1=CC[C@H](C)C(C)(C)[C@@H]1/C=C/C(C)=C/CC[C@@]1(CO)[C@H](CCCO)/C(=C(/C)C=O)CC[C@]1(C)O [Iripallidal]
- GI50 (concentration required to inhibit growth by 50%) [3]: from micromolar to nanomolar range

Structure (SMILES): C=C(C)C12C[C@@H](COC(=O)c3ccccc3)[C@@]34OC5(O[C@@H]1[C@@H]3C1O[C@]1(CO)[C@@H](O)[C@@]1(O)[C@H]4[C@@H](C(C)CCCCCC[C@H]5O)C(C)[C@@H]1OC(=O)c1ccccc1)O2 (stereo partly shown) [Gnidimacrin]
- inhibition of Cdk2 [4]: 100%
- concentrations with potent antitumor activity [5]: 0.1 to 1 nM
- concentration acting as PKC activator [6]: ≈ 3 nM

Structure (SMILES): CC1=C[C@]23C(=O)[C@@H](C=C(COC(=O)c4ccccc4)[C@@H](O)[C@]2(O)[C@H]1OC(=O)c1ccccc1)[C@H]1[C@@H](C[C@H]3C)C1(C)C [Ingenol 3,20-dibenzoate]
- Ki [7]: 240 nM

Structure (SMILES): CCCCCCCC(=O)OC1C(=CC(=O)OC)CC2CC(CO)OC(=O)CC(O)CCOC(c3ccccc3)CC3CCOC(C=CC(C)(C)C1(O)O2)O3 (stereo not shown) [bryolog 4]
- Ki [8]: 2.3 nM

Structure (SMILES): CCCCCCCCc1ccc2c3c(c[nH]c13)C[C@@H](CO)NC(=O)[C@H](C(C)C)N2C [Octylindolactam V]
- EC50 [9]: 29 nM

Structure (SMILES): Cc1ccc(OCC(=O)O)c(OCC(=O)O)c1 [MCDA, 4-Methylcatechol-diacetic acid]
- target quadrant ratio in probe test, compound-only vs. control rats [10, 13]: no differences
- water maze spatial learning, compound-only vs. control rats [10, 13]: no differences
- target quadrant ratio in probe test, ischemic with treatment vs. control rats ([10]; same regimens): no differences
- target quadrant ratio in probe test, ischemic with treatment vs. ischemic rats ([10]; same regimens): group differences
- water maze spatial learning, ischemic with treatment vs. control rats ([10]; same regimens): remained significant
- water maze spatial learning, ischemic with treatment vs. ischemic rats [10]: improved the learning of the ischemic rats

Structure (SMILES): CCCCCCCC(=O)OC1C(=CC(=O)OC)CC2CC(CO)OC(=O)CC(O)CCOC(CCCc3ccc(Br)cc3)CC3CCOC(C=CC(C)(C)C1(O)O2)O3 (stereo not shown) [bryolog 5]
- Ki [8]: 1.9 nM

Structure (SMILES): CCCCCCCC(=O)OC1C(=CC(=O)OC)CC2CC(CO)OC(=O)CC(O)CCOC(C(C)(C)C)CC3CCOC(C=CC(C)(C)C1(O)O2)O3 (stereo not shown) [bryolog 3]
- Ki [8]: 6.5 nM

Structure (SMILES): CCCC=CC=CC(=O)OC1C(=CC(=O)OC)CC2CC(C(C)O)OC(=O)CC(O)CC3CC(OC(C)=O)C(C)(C)C(O)(CC4CC(=CC(=O)OC)CC(C=CC(C)(C)C1(O)O2)O4)O3 (stereo not shown) [Bryostatin 1, bryostatin-1]
- target quadrant preference, Bryostatin-1 alone vs. sham-operated ([11]; 15 μg/m^2): no significant effects
- spatial learning, Bryostatin-1 alone vs. sham-operated ([11]; 15 μg/m^2, 9 days after the last dose): did not affect the learning
- memory retention test after ischemia ([11]; 15 μg/m^2, probe test 24 hours after last trial): effectively restored memory retention after ischemia to the level of the sham-operated rats
- spatial learning impairment, Bryostatin-1+Ischemia vs. Ischemia ([11]; 15 μg/m^2 tail vein, 2 doses/week, 10 doses, from about 24 hours after ischemia, tested 9 days after last dose): restored
- water maze spatial learning, compound-only vs. control rats [10, 13]: no differences
- water maze spatial learning, ischemic with treatment vs. control rats ([10]; same regimens): did not differ statistically from the control rats
- water maze spatial learning, ischemic with treatment vs. ischemic rats [10]: greatly improved the performance
- main adverse reaction [12]: myalgia
